Data: patent US20250248979A1, “NOVEL GPX4 INHIBITORS AND USES THEREOF” (THE TRUSTEES OF COLUMBIA UNIVERSITY IN THE CITY OF NEW YORK, priority 2022, published 2025)
Substitutions are numbered along the chain they refer to. Where two headings read alike, the source gives them in different places.

Key:
GPX4^U46C = molecular target: T1, GPX4^U46C (Homo sapiens, UniProt P36969, U73C); assay: Protein crystallography of inhibitor complexes
T1 construct: made in house; host or cells: E. coli BL21-Gold (DE3)
T1 sequence (P36969 1-170 isoform P36969-2 U46C): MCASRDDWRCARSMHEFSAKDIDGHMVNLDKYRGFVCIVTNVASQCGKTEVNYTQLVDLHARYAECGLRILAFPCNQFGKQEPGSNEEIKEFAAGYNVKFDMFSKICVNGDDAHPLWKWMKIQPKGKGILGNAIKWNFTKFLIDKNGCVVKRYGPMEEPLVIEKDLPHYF
Procedure: GPX4^U46C was pre-incubated with covalent inhibitors before crystallization using conditions that were optimized with monitoring on intact protein MALDI MS analysis. 40 μM GPX4^U46C was incubated with 375 μM LOC1886 in the reaction buffer (20 mM Tris pH 9.0, 100 mM NaCl, 2 mM TCEP, 1.5% DMSO) at 37° C. for 4 hours and then 4° C. overnight. Covalent binding was confirmed using intact protein MALDI MS analysis. The protein-inhibitor complex was then exchanged into crystallization buffer (20 mM Tris, pH 8.0, 300 mM NaCl, 3 mM TCEP) and concentrated to 5 mg/mL.
Protein samples of GPX4^U46C in complex with LOC1886 were initially screened at the High-Throughput Crystallization Screening Center of the Hauptman-Woodward Medical Research Institute (HWI) (hwi.buffalo.edu/high-throughput-crystallization-center/) (Luft et al. 2003). The most promising crystal hits were reproduced using under oil micro batch method at 23° C. […]
GPX4^U46C with LOC1886 diffracted X-ray at the beamline NE-CAT24-ID-C to resolution 1.93 Å. […] The structure of each protein was determined by molecular replacement method using MOLREP program and the crystal structures of GPX4^U46C (PDB id: 7L8K) and GPX4^U46C-R152H (PDB id: 7L8L) were both used as search models for structure determination (Vagin and Teplyakov, 2010). […]

in vitro = conditions: mouse, plasma
GPX4 = molecular target: T2, GPX4 (Homo sapiens, UniProt P36969); assay: Western blot assay of GPX4 protein degradation; assay type: cell-based
T2 sequence (P36969 1-170 isoform P36969-2): T1 sequence (P36969 1-170 isoform P36969-2 U46C) with C46U
Procedure: HT-1080 cells were seeded at 250,000 cells per well in a 6-well plate and incubated 37° C. with 5% CO2 overnight. The next day, cells were treated with vehicle alone or the compound of interest with 10 μM Fer-1 for 10 hours. Compounds were dissolved in DMSO. Cells were harvested with trypsin, washed with cold PBS, and lysed in RIPA buffer containing complete Protease Inhibitor Cocktail mini tablets (Roche) on ice for 30 minutes. Samples were then centrifuged at 14,000×g for 15 minutes at 4° C. Supernatants were collected and protein concentrations were determined using the BCA Protein Assay Kit (Pierce). Concentrations were normalized across samples and mixed with 6×SDS-PAGE Sample Loading Buffer (G Biosciences). Protein samples were then loaded on a NuPAGE Novex 4-12% Bis-Tris protein gel and run in MES buffer (Invitrogen) at 100V for 10 minutes then 200V for an additional 30 minutes. Proteins were transferred to a PVDF membrane (Invitrogen) using the iBlot 2 Gel Transfer Device. The membrane was washed with PBS, then blocked using Intercept Blocking Buffer (LICOR) for one hour. The membrane was then incubated with the primary antibodies in a 1:1 solution of blocking buffer and PBST (PBS+0.1% Tween 20) overnight at 4° C. […] The blot was imaged using a LI-COR Odyssey CLx IR scanner and results were quantified in ImageJ and GraphPad Prism 9.

[1] = not given; remark: listed apart in the source
U-2932 = assay: Cytotoxicity in DLBCL cells, U-2932; assay type: cell-based, human; conditions: for IC50: U-2932
SU-DHL-5 = assay: Cytotoxicity in DLBCL cells, SU-DHL-5; assay type: cell-based, human; conditions: for IC50: SU-DHL-5
SU-DHL-7 = assay: Cytotoxicity in DLBCL cells, SU-DHL-7; assay type: cell-based, human; conditions: for IC50: SU-DHL-7
[2] = Fer-1 1.0 μM, read-out: IC50 (μM) with Fer-1

GPX4 protein degradation, result in words (GPX4; HT-1080 cells) | SMILES | binding site in co-crystal structure (GPX4^U46C) | half-life (in vitro) | GPX4 protein degradation, result in words (GPX4) | Plasma Stability t1/2 (min) mouse | Plasma Stability t1/2 (min) human [1] | Selectivity^a (fold) (U-2932) | IC50 (U-2932; 24 h, read-out: IC50) | IC50 (U-2932; [2]) | Selectivity^a (fold) (SU-DHL-5) | IC50 (SU-DHL-5; [2]) | Selectivity^a (fold) (SU-DHL-7) | IC50 (SU-DHL-7; 24 h, read-out: IC50) | IC50 (SU-DHL-7; [2]) | IC50 (SU-DHL-5; 24 h, read-out: IC50)
inhibits and degrades GPX4 | COc1cccc2[nH]c(C(=O)n3ccnc3)cc12 [LOC1886, reference compound] | bound to allosteric sites C66 and C10 of GPX4^U46C | < 2 min |  |  |  |  |  |  |  |  |  |  |  | 
 | Cn1nc(C(=O)NC(C)(C)COC(=O)CCl)c2ccc(Br)cc21 [QW-314] | covalently binds to the mutant cysteine in the U46 residue | 40.7 min | induces GPX4 protein degradation in HT-1080 cells |  |  |  |  |  |  |  |  |  |  | 
 | COc1ccc(-c2ccc3c(C(=O)NC(C)(C)COC(=O)CCl)nn(C)c3c2)cc1Cl [QW-446] |  |  |  | 24.0 min | 7.5 min |  |  |  |  |  |  |  |  | 
 | CC(C)(COC(=O)CCl)NC(=O)c1nn(Cc2cc(Cl)cc(Cl)c2)c2cc(-c3ccc(N4CCOCC4)c(Cl)c3)ccc12 [QW-852] |  |  |  |  |  | 6 fold | 1.37 µM | 7.9 µM | >1000 fold | 1.58 µM | >1000 fold | 0.031 µM | > 1000 µM | 
 | COC(=O)c1ccc([C@@H]2c3[nH]c4ccccc4c3C[C@@H](C(=O)OC)N2C(=O)CCl)cc1 [RSL3, reference compound] |  |  |  | 5.2 min | >1000 min | >1000 fold | 0.16 µM | 316 µM | 5 fold | 2.15 µM | 6 fold | 0.17 µM | 1 µM | 0.4 µM
